The source made the active and inactive calls.
How the values were obtained:
[1] = target: T1, Tyrosine-protein phosphatase non-receptor type 22 (Homo sapiens, UniProt Q9Y2R2); assay: LYP1 Fluorescent Assay using OMFP substrate for In Vitro dose response studies. [Related pubchem assays (depositor defined):AID1779, AID1784, AID435024]
T1 sequence (Q9Y2R2 whole entry): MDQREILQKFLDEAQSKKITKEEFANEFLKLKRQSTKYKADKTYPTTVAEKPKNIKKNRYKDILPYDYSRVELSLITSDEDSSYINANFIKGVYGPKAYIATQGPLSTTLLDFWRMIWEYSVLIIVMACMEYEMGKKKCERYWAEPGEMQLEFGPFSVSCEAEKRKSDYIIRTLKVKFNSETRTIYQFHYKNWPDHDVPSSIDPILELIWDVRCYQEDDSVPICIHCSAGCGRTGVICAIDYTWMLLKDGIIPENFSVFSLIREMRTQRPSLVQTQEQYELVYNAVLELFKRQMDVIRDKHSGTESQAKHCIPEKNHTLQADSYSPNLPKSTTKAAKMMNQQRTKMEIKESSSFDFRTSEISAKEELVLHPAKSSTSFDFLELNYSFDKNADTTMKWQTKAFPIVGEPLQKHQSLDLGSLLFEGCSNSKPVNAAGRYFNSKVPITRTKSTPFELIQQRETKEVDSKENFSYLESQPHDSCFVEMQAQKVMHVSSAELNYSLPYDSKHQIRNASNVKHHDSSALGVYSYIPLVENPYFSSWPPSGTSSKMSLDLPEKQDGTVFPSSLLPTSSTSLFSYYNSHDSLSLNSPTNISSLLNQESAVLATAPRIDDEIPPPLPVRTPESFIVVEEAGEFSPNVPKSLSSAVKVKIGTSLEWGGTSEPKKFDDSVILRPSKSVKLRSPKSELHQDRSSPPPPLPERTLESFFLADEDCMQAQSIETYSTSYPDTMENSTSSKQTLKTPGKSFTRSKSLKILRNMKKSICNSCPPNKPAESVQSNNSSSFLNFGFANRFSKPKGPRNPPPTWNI

[2] = target: T1, Tyrosine-protein phosphatase non-receptor type 22; assay: PTPN22 lymphoid phosphatase activity blockers – biochemical, fluorescence intensity, uHTS (AID 1779)
ORF 73 = ORF 73 (Human herpesvirus 8, UniProt O40947); assay: KSHV LANA DNA-binding disruption – biochemical, fluorescence polarization, cherry-picked samples, dose response (AID 504725); set-up: species or system Human gammaherpesvirus 8;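 note: fluorescence polarization of a labeled DNA duplex reporting LANA DNA binding; potency is for inhibitors that block LANA binding to the DNA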
Chain of ORF 73 (O40947 whole entry): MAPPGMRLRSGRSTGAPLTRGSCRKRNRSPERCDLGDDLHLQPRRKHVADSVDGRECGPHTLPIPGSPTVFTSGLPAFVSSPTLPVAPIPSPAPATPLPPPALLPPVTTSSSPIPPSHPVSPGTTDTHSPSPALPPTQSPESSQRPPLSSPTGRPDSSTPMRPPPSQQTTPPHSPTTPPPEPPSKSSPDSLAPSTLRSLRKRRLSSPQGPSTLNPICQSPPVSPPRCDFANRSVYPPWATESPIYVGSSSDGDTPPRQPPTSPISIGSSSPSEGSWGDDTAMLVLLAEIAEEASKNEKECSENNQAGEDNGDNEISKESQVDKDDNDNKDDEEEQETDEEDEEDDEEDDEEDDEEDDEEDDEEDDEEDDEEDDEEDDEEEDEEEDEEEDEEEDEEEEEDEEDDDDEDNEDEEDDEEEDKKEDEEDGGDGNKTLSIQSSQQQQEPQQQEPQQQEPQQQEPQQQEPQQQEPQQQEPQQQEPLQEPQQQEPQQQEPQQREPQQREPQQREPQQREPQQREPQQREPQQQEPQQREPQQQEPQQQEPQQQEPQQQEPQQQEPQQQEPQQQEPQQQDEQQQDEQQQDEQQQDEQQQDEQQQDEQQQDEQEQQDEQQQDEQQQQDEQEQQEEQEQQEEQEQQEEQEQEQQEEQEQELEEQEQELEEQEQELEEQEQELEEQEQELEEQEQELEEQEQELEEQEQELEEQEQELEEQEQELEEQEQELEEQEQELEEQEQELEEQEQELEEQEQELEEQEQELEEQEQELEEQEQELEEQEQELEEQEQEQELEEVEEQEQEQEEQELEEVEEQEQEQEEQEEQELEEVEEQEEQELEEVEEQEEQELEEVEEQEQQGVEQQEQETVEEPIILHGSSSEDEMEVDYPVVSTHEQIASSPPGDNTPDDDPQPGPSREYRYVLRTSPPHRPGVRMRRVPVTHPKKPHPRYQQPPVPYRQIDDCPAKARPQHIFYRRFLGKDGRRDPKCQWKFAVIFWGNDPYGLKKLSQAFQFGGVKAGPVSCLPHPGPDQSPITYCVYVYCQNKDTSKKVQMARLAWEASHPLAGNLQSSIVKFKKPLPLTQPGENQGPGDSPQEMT

[3] = target: Serine/threonine-protein phosphatase (Homo sapiens, UniProt Q9BPW0); assay: Counterscreen for inhibitors of PP1: fluorescence-based biochemical high throughput dose response assay to identify inhibitors of Protein Phosphatase 5 (PP5). [Related pubchem assays: 2034 (Summary (PP5 inhibitors)), 1987 (PP5 inhibitors in singlate), 2235 (PP1 inhibitors in singlate)]
Chain of Serine/threonine-protein phosphatase (Q9BPW0 whole entry, the tested form may be a part): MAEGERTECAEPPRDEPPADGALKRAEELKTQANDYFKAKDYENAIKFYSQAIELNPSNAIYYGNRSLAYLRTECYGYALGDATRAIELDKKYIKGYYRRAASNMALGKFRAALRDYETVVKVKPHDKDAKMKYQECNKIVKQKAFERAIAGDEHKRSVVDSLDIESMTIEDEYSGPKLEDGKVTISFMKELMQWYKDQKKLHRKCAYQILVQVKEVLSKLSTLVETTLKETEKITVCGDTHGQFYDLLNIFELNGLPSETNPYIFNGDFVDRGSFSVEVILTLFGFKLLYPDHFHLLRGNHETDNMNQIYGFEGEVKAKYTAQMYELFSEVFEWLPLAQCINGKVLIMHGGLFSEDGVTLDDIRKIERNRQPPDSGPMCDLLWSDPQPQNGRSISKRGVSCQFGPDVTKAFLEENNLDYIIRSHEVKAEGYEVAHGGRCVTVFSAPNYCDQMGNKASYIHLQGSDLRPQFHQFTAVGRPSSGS

[4] = target: T2, Carboxy-terminal domain RNA polymerase II polypeptide A small phosphatase 1 (Homo sapiens, UniProt Q9GZU7); assay: CTDSP1 inhibitors, concentration-response, biochemical, absorbance readout, ultra-high-throughput screen actives (AID 540297); type: functional
T2 sequence (Q9GZU7 whole entry): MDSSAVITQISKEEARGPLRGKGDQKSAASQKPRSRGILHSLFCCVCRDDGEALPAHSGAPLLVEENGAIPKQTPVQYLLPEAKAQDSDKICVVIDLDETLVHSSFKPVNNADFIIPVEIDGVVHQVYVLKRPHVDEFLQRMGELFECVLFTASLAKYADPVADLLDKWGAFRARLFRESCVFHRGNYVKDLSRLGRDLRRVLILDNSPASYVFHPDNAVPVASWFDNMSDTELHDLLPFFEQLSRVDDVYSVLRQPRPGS

[5] = target: T3, Apoptotic protease-activating factor 1 (Homo sapiens, UniProt O14727); assay: activation of Apaf-1 mediated apoptosis – fluorescent, uHTS hits, dose response (AID 588554); type: functional
T3 sequence (O14727 whole entry): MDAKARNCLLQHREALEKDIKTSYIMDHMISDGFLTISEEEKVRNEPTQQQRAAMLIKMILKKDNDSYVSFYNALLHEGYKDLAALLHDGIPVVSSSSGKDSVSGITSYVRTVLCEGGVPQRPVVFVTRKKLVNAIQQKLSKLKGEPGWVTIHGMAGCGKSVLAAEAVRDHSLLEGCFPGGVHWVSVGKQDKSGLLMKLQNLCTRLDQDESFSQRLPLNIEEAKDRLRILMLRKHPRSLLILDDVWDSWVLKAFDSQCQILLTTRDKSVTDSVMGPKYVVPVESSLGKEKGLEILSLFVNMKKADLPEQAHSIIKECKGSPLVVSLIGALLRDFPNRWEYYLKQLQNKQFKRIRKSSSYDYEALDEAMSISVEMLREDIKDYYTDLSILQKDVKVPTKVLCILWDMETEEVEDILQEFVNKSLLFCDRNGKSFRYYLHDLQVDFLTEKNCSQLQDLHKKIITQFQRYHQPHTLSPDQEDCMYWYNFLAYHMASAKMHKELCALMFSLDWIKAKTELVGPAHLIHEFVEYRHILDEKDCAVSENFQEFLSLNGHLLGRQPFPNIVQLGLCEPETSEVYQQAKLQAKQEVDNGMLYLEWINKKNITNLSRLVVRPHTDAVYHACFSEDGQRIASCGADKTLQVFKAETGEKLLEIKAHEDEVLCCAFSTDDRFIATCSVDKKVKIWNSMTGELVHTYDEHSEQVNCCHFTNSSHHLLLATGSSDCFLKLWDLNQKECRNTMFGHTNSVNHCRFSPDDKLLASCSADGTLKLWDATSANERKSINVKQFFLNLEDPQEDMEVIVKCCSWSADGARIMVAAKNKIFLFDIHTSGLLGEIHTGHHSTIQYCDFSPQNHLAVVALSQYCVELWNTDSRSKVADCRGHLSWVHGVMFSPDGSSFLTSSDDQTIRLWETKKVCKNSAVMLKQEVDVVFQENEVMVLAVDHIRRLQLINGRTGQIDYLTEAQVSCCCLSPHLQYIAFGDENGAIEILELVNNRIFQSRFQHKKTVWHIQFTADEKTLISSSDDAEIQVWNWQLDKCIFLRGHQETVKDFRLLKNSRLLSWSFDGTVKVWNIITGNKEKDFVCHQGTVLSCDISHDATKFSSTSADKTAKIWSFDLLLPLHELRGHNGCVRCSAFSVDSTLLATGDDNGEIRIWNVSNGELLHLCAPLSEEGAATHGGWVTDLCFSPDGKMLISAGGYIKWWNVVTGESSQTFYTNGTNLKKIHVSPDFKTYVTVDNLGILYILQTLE

[6] = target: T4, Tyrosine-protein phosphatase non-receptor type 7 (Homo sapiens, UniProt P35236); assay: HTS HePTP Fluorescent Assay using OMFP substrate for In Vitro dose response studies. [Related pubchem assays (depositor defined):AID1059, AID1077, AID1784, AID2068, AID2085, AID435032, AID521]; type: functional
T4 sequence (P35236 whole entry): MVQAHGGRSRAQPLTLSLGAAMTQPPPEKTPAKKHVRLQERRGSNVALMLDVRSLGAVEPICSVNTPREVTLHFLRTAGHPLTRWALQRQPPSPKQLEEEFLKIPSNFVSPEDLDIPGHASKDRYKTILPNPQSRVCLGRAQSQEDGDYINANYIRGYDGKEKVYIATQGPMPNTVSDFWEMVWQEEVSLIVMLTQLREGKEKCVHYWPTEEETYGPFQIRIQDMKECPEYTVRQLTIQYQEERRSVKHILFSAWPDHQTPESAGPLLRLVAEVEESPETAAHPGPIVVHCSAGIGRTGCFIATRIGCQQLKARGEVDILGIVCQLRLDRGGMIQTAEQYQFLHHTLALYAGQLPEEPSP

[7] = target: Beta-adrenergic receptor kinase 1 (Homo sapiens, UniProt P25098); assay: aptamer displacement from bead-bound GRK2 – biochemical, cherry pick 1, bead flow cytometry, dose response (AID 504500)
Chain of Beta-adrenergic receptor kinase 1 (P25098 whole entry): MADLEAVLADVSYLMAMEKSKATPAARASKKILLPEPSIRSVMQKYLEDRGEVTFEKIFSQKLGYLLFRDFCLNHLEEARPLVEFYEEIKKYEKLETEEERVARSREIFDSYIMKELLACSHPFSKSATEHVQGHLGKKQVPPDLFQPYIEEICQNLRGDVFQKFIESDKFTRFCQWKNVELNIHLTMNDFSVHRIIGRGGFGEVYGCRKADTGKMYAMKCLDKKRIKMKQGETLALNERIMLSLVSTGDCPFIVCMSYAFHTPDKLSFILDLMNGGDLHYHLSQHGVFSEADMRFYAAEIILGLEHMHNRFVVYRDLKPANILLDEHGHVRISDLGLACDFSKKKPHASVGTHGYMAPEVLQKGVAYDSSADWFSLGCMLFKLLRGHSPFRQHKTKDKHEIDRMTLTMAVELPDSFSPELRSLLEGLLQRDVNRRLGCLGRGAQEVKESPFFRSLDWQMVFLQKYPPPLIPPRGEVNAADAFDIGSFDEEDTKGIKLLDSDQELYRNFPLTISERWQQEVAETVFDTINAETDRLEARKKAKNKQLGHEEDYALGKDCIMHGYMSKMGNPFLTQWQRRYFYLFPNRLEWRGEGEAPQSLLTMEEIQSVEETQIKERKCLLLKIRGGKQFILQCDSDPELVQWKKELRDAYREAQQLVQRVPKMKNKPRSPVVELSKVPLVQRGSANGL

[8] = target: Serine/threonine-protein phosphatase PP1-alpha catalytic subunit (Homo sapiens, UniProt P62136); assay: inhibition of protein phosphatase 1 activity – biochemical, fluorescence, dose response (AID 2403);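 note: phosphatase turnover of OMFP into fluorescent 3-O-methylfluorescein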
Chain of Serine/threonine-protein phosphatase PP1-alpha catalytic subunit (P62136 whole entry): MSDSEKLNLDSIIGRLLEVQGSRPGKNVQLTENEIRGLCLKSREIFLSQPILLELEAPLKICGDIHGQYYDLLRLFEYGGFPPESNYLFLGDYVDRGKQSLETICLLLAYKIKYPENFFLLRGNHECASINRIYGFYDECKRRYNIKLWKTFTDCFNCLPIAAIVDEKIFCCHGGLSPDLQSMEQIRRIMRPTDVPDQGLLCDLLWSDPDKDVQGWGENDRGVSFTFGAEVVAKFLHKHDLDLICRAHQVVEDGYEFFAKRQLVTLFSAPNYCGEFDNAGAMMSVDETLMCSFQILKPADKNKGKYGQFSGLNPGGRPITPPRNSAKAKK

[9] = target: T4, Tyrosine-protein phosphatase non-receptor type 7; type: functional
[10] = target: DNA (cytosine-5)-methyltransferase 1 (Homo sapiens, UniProt P26358); assay: inhibition of DNA methylation by DNMT1 – biochemical, fluorescent molecular beacon, confirmation (AID 602386); type: functional
Chain of DNA (cytosine-5)-methyltransferase 1 (P26358 whole entry): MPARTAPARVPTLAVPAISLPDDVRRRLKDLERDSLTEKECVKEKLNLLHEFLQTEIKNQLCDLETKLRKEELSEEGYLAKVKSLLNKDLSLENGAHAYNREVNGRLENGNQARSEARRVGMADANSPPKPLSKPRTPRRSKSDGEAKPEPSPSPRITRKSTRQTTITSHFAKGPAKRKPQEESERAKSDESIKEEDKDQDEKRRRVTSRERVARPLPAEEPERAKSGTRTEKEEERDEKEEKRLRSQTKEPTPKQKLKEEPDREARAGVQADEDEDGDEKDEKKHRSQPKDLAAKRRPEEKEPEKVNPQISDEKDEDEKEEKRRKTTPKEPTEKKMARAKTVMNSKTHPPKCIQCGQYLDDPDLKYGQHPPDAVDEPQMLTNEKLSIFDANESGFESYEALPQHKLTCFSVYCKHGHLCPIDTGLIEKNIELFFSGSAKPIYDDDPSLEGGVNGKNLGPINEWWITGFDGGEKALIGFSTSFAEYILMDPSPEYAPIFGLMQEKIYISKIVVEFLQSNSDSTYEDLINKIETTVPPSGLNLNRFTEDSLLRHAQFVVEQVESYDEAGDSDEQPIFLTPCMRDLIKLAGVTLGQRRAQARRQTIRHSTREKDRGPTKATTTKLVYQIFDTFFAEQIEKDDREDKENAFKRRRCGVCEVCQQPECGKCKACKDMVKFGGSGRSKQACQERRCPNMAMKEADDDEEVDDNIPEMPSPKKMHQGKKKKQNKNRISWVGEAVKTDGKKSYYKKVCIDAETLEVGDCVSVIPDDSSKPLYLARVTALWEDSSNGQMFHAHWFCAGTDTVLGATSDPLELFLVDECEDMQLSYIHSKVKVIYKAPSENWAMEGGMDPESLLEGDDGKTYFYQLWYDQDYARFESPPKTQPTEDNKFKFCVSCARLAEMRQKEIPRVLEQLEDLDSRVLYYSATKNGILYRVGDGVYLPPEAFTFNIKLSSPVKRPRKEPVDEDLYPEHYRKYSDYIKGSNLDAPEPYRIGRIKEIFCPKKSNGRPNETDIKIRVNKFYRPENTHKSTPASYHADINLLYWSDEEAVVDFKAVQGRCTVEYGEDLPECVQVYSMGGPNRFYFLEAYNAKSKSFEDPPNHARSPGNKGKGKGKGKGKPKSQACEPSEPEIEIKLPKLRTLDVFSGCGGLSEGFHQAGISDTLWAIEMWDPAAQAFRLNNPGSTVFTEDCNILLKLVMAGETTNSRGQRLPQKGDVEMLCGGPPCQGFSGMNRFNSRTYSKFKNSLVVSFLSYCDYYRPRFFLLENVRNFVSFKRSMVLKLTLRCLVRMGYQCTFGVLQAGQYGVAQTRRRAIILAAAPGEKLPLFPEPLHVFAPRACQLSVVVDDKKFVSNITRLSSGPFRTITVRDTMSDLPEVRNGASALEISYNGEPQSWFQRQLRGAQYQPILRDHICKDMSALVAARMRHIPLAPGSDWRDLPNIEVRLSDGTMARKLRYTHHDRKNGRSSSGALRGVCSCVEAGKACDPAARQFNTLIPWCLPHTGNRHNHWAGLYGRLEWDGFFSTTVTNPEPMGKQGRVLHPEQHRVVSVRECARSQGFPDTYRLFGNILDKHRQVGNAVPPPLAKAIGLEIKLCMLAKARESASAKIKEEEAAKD

[11] = target: T1, Tyrosine-protein phosphatase non-receptor type 22; type: functional
[12] = target: T1, Tyrosine-protein phosphatase non-receptor type 22; type: functional; remark: listed apart in the source
DNA topoisomerase = DNA topoisomerase (Yersinia pestis, UniProt A0A2S9PM60); assay: Yersinia topoisomerase I cleavage product accumulation – biochemical, cherry-pick, dose response (AID 588525)
Chain of DNA topoisomerase (A0A2S9PM60 whole entry): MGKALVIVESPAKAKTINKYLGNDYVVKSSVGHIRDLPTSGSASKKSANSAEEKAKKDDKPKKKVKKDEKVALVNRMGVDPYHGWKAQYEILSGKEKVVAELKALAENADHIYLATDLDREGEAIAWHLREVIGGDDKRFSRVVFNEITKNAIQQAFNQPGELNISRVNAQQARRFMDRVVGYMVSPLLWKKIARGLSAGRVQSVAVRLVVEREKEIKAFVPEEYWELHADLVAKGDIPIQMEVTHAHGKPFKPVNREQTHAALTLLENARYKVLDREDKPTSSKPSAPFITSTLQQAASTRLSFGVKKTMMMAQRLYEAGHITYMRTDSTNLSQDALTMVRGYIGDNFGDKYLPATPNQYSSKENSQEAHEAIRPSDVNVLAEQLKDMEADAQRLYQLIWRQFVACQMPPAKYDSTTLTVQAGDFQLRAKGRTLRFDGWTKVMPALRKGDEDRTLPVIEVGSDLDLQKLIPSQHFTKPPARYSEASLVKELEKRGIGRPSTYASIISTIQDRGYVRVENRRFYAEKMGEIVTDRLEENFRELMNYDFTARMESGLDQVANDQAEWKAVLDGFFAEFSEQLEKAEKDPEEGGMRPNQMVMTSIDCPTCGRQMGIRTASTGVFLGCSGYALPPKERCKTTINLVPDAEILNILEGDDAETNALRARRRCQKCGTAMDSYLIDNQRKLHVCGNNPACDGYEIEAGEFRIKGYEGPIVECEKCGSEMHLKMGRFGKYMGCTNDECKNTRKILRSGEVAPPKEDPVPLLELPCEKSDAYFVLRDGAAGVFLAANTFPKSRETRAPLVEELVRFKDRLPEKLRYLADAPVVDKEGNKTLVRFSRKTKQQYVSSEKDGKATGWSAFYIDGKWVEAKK

Row | SMILES | IC50 [1] | IC50 [2] | AC50 (ORF 73) | IC50 [3] | IC50 [4] | EC50 [5] | IC50 [6] | EC50 [7] | IC50 [8] | IC50 [9] | IC50 [10] | IC50 [11] | IC50 [12] | AC50 (DNA topoisomerase)
1 | CC(C)(CS(=O)(=O)[O-])NC(=O)CC[N+](C)(C)CCO | 4.28 µM (active) | 10.9 µM (active) | 39.8 µM (active) | > 67 µM (not active) | 0.453 µM (active) | 1.16 µM (active) | 28.6 µM (active) | 0.67 µM (active) | 2.46 µM (active) | 17.9 µM (active) | 3.6 µM (active) | 5.97 µM (active) | 4.08 µM (active) | –
2 | CCOc1ccc(N2C(=O)CC(N3CCN(c4ccc(C(=O)c5ccncc5)cc4)CC3)C2=O)cc1 (centres undefined) | – | – | – | – | – | – | – | – | – | – | – | – | – | 10.6 µM (active)

Source: ChEMBL document CHEMBL1201862, “PubChem BioAssay data set” (2004)
